Test results published in patent publication US20230372334A1, “USE OF AN ERK INHIBITOR FOR THE TREATMENT OF MYELOFIBROSIS” (Novartis AG, priority 2020, published 2023).
“Also recorded” adds a separate entry of the source.

What was measured:
[1] = test system: Ba/F3 cell line stably expressing erythropoietin receptor (EpoR) and wild-type JAK2; test: Antiproliferative activity, CellTiter-Glo viability assay at 48h, Ba/F3 EpoR wild-type JAK2; assay type: cell-based, murine; settings: EpoR Jak2 wild type Ba/F3 cells; FIG. 6
Procedure: (§1) To assess anti-proliferative effects of inhibitors, cells were seeded at 10′000/200 ul with increasing inhibitor concentrations in triplicate. Proliferation was assessed at 48h using the CellTiter-Glo viability assay (Promega) and normalized to cell growth in medium with equivalent volume of DMSO.

[2] = test system: ERK downstream targets RSK3 and DUSP6; test: ERK signaling in splenocytes of Jak2V617F mice by Western blot; assay type: in vivo, mouse; settings: FIG. 2A
[3] = test system: Ba/F3 cell line stably expressing erythropoietin receptor (EpoR) and Jak2V617F; test: Antiproliferative activity, CellTiter-Glo viability assay at 48h, Ba/F3 EpoR Jak2V617F; assay type: cell-based, murine; settings: EpoR Jak2V617F mutant Ba/F3 cells; FIG. 6
Procedure: as §1

[4] = test system: CD34+ peripheral blood mononuclear cells (PBMCs) of a MF patient; test: Colony growth from CD34+ PBMCs of a MF patient; assay type: cell-based, human; settings: FIG. 5A
[5] = test system: JAK2V617F PV/MF mouse model; test: JAK2V617F PV/MF mouse model, 14 consecutive days oral dosing (Example 3); settings: ruxolitinib 60 mg/kg BID, Compound A 75 mg/kg QD, 14 days; for body weight change: FIG. 4A; for bone marrow cellularity / bone marrow toxicity: FIG. 4B; for WBC count: FIG. 4C; for platelet count: FIG. 4D; for elevated hematocrit / splenomegaly: vs vehicle; for elevated hematocrit: FIG. 3A; for splenomegaly: FIG. 3B
Source text: For treatment studies, bone marrow (BM) from primary Jak2V617F Vav-Cre CD45.2 mice was mixed 1:1 with Jak2 wild-type CD45.1 BM and transplanted into lethally irradiated CD45.1 recipients. Development of the MPN phenotype was confirmed by peripheral blood counts 2 months after BM transplantation. Mice were randomized to treatment groups according to blood counts and treated by oral gavage for 1-4 weeks.

MPLW515L mice = test: MPLW515L mutant MPN mouse model; assay type: in vivo; settings: oral gavage, FIG. 2D
Jak2V617F mice = test: Jak2V617F knock-in mouse model (polycythemia vera phenotype), competitive BM transplant; assay type: in vivo; settings: for reduction of hematocrit: Example 4, FIG. 5B

Row | SMILES | suppression of proliferation (decrease in IC50 value) [1] | activation of ERK downstream targets RSK3 and DUSP6 [2] | suppression of proliferation (decrease in IC50 value) [3] | growth of colonies derived from CD34+ PBMCs [4] | polycythemia [5] | tolerability [5] | body weight change [5] | bone marrow cellularity / bone marrow toxicity [5] | WBC count [5] | platelet count [5] | elevated hematocrit [5] | splenomegaly [5] | correction of leukocytosis (WBC count) (MPLW515L mice) | reduction of hematocrit (Jak2V617F mice) | polyglobulia or polycythemia (hematocrit levels) (Jak2V617F mice; oral gavage, FIG. 2B) | splenomegaly (spleen weight) (Jak2V617F mice; oral gavage, FIG. 2C) | elevated hematocrit ([5]; listed as Ruxolitinib) | splenomegaly ([5]; listed as Ruxolitinib)
1 | CNC[C@@H](NC(=O)c1ccc(-c2nc([C@H]3CC[C@H](O)[C@@H](F)C3)cnc2N)cc1F)c1cc(F)cc(Br)c1 [Compound A, 4-(3-amino-6-((1S,3S,4S)-3-fluoro-4-hydroxycyclohexyl)pyrazin-2-yl)-N-((S)-1-(3-bromo-5-fluorophenyl)-2-(methylamino)ethyl)-2-fluorobenzamide] | ruxolitinib was superior to that of Compound A | inhibited activation | ruxolitinib was superior to that of Compound A | comparably suppressed growth | significantly normalizes | well tolerated | lack of body weight loss | absence of bone marrow toxicity | normal | normal; also recorded: absence of thrombocytopenia | significantly normalized; also recorded: significantly reduced; also recorded: reduces | significantly normalizes; also recorded: significantly reduced | ruxolitinib was superior to that of Compound A | comparable reduction | potently corrected | potently corrected |  | 
2 | N#CC[C@H](C1CCCC1)n1cc(-c2ncnc3[nH]ccc23)cn1 [ruxolitinib, (R)-3-(4-(7H-pyrrolo[2,3-d]pyrimidin-4-yl)-1H-pyrazol-1-yl)-3-cyclopentylpropanenitrile, reference compound] |  |  |  | comparably suppressed growth | significantly normalized | well tolerated | lack of body weight loss | absence of bone marrow toxicity | normal | normal; also recorded: absence of thrombocytopenia | significantly normalized | significantly normalized | superior to that of Compound A | comparable reduction |  |  | significantly reduced | significantly reduced
